Marks after values point to notes of the source that are not given here.
Tested on: spontaneous motion activity of rats
Assay: Depression of spontaneous motion activity (SMA) in "open field" test
Assay type: in vivo
Conditions: for Spontaneous activity (total values) b) after haloperidol administration: rats, i/p., open field 2 minutes, 10 minutes after administration, M±σ
Excerpt: The presently-known clinical methods of haloperidol administration are: intravenous, intramuscular and oral. […] In theory, it is possible to improve the efficacy of the medicine, to reduce the single-administration dosage (through elimination of the effect of “first passage” through the liver) and to alleviate adverse somatic side effects.
The Applicant used pharmacological combination of intraperitoneally (i/p.) administered haloperidol with nasally applied CO-generating composition.
The experiments were performed on 24 puberty-age white rats (of no particular breed), body mass: 100-120 grams. Depression in SMA of the animals, as produced by i/p. drug administration, was compared with SMA depression produced by i/p. administration combined with nasal administration of CO-generating composition on the basis of a hem-oxygenase enzyme form. SMA of each animal was evaluated as total sum of values obtained within 2 minutes of “open field” test (in terms of the number of poles/supports, number of ring exercises and cleanings), prior to drug administration, and 10 minutes after drug administration.
The experimental animals were subdivided into 4 groups:
Group No. 1: controls (6 animals), no exposure;
Group No. 2: haloperidol (7 animals), i/p., 0.2 mg/kg;
Group No. 3: haloperidol (5 animals), i/p., 0.05 mg/kg;
Group No. 4: haloperidol (6 animals), i/p., 0.05 mg/kg, in pharmacological combination with CO-generating composition.
Haloperidol was administered by i/p. route within the physiological solution; CO-generating composition was administered nasally.

[1] = preliminary studies, intraperitoneal, 0.2 mg/kg

O=C(CCCN1CCC(O)(c2ccc(Cl)cc2)CC1)c1ccc(F)cc1 [haloperidol]
Persistence of haloperidol-dependant depression in motive responses [1]: 53.5 ± 7.7 min
Time to development of haloperidol-dependant depression in motive responses [1]: 4.2 ± 1.8 min
Spontaneous activity (total values) b) after haloperidol administration (0.05 mg/kg): 24 ± 3**^)
Spontaneous activity (total values) b) after haloperidol administration (0.2 mg/kg): 3 ± 1*^)

From patent publication US20080207600A1, “Pharmaceutical Combination for the Treatment of Cns Functional Disorders” (priority 2004, published 2008)
